Test results reported in patent US8163737B2 (Vertex Pharmaceuticals Incorporated, priority 2006, dated 2012).

Columns and labels:
[1] = target: endogenous CGRP receptor (Homo sapiens, UniProt O60894+Q16602); assay: CGRP functional antagonism using SK-N-MC-BLA (4C10), β-lactamase transcriptional reporter assay; assay type: cell-based; details: SK-N-MC (4C10) cells, inhibition of β-lactamase expression in the presence of 200 pM CGRP
[2] = target: T1, CGRP receptor (SK-N-MC membrane) (Homo sapiens, UniProt O60894+Q16602); assay: I125-CGRP binding displacement assay on purified SK-N-MC membrane
T1 construct: Purified SK-N-MC membrane was purchased from Perkin Elmer; purchased Perkin Elmer; host or cells: SK-N-MC membrane
In short: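 Human SK-N-MC membranes incubated with compounds and I125-CGRP for 2 h at room temperature in 25 mM Tris-HCl pH 7.4, 5 mM MgCl2, 0.1% BSA, 0.05% Tween, then filtered and counted. Nonspecific binding defined with 1 uM unlabelled CGRP; percent displacement fitted to curves.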

T1 sequence (Q16602 23-461): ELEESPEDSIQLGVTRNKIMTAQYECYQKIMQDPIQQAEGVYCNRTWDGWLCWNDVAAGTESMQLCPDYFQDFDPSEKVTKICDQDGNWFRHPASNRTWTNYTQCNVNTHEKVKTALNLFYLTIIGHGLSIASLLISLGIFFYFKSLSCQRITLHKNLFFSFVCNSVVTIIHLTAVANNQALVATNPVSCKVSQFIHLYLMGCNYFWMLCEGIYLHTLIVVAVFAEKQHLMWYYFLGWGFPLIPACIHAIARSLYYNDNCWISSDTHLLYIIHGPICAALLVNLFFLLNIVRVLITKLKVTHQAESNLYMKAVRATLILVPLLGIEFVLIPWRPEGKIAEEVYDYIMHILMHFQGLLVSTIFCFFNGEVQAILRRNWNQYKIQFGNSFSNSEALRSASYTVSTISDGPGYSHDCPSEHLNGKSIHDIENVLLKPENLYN
T1 sequence (O60894 27-148): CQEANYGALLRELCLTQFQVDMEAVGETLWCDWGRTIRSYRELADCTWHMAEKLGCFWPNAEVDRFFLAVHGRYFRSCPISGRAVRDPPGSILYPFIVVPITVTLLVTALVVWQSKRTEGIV
Sequence of endogenous CGRP receptor (Q16602 23-461): as the sequence (Q16602 23-461) above
Sequence of endogenous CGRP receptor (O60894 27-148): as the sequence (O60894 27-148) above

Row | Structure (SMILES) | IC50 [1] | Ki [2]
1 | CC(C)(C)CCN1C(=O)[C@H](CC(=O)N2CCC(n3c(=O)[nH]c4ncccc43)CC2)SC1c1cccc(F)c1NCCN1CCCCC1 (stereo partly drawn) [Compound 532, 1-(1-(2-((5S)-2-(2-(2-(Piperidin-1-yl)ethylamino)-3-fluorophenyl)-3-(3,3-dimethylbutyl)-4-oxothiazolidin-5-yl)acetyl)piperidin-4-yl)-1H-imidazo[4,5-b]pyridin-2(3H)-one] | < 1000 nM | < 1000 nM
2 | CC(C)CCN1C(=O)C(CC(=O)N2CCC(n3c(=O)[nH]c4ccccc43)CC2)S[C@H]1c1ccccc1N1CCC(O)CC1 (some centres unmarked) [Compound 290] | < 1000 nM | < 1000 nM
3 | COc1ccc(C2SC(CC(=O)N3CCC(n4cc(-c5ccccc5)[nH]c4=O)CC3)C(=O)N2CCC(C)C)cc1 (centres unmarked) [Compound 286] | 1000 to 5000 nM | > 5000 nM
4 | N#Cc1ccccc1C1SC(CC(=O)N2CCC(N3Cc4ccccc4NC3=O)CC2)C(=O)N1CC1CCCCC1 (centres unmarked) [Compound 265] | < 1000 nM | < 1000 nM
5 | CC(C)CCN1C(=O)C(CC(=O)N2CCC(N3Cc4ccccc4NC3=O)CC2)SC1c1cccnc1 (centres unmarked) [Compound 182] | < 1000 nM | < 1000 nM
6 | C[C@@H]1CN(c2c(F)cccc2[C@H]2S[C@@H](CC(=O)N3CCC(N4CCc5ccccc5NC4=O)CC3)C(=O)N2CCC(C)(C)C)C[C@H](C)N1 [Compound 474] | 1000 to 5000 nM | < 1000 nM
7 | CC(C)(C)CCN1C(=O)C(CC(=O)N2CCC(N3CCc4ccccc4NC3=O)CC2)SC1c1cccc(F)c1N1CCNCC1 (centres unmarked) [Compound 391] | > 5000 nM | > 5000 nM
8 | CC(C)CCN1C(=O)C(CC(=O)N2CCC(N3CCc4ccccc4NC3=O)CC2)SC1c1ccc(F)cc1Cl (centres unmarked) [Compound 79] | < 1000 nM | < 1000 nM
9 | CN1CCN(c2ccccc2C2SC(CC(=O)N3CCC(n4c(=O)[nH]c5ccccc54)CC3)C(=O)N2CCC(C)(C)C)CC1 (centres unmarked) [Compound 302] | < 1000 nM | < 1000 nM
10 | Cc1ccc(C2SC(CC(=O)N3CCC(N4Cc5ccccc5NC4=O)CC3)C(=O)N2CCC(C)C)cc1C (centres unmarked) [Compound 204] | 1000 to 5000 nM | 1000 to 5000 nM
11 | CC(C)(C)CCN1C(=O)[C@H](CC(=O)N2CCC(n3c(=O)[nH]c4ncccc43)CC2)S[C@H]1c1cccc(F)c1C1CCNCC1 [Compound 555] | 1000 to 5000 nM | < 1000 nM
12 | CC(C)(C)N1CCN(c2c(F)cccc2[C@@H]2S[C@@H](CC(=O)N3CCC(N4CCc5ccccc5NC4=O)CC3)C(=O)N2Cc2ccccc2)CC1 [Compound 548] | < 1000 nM | < 1000 nM
13 | COc1ccccc1C1SC(CC(=O)N2CCC(n3cc(-c4ccccc4)[nH]c3=O)CC2)C(=O)N1CCC(C)C (centres unmarked) [Compound 64] | 1000 to 5000 nM | < 1000 nM
14 | CC(C)(C)CCN1C(=O)[C@H](CC(=O)N2CCC(n3c(=O)[nH]c4ncccc43)CC2)SC1c1cccc(F)c1N1CCN(C(C)(C)C)CC1 (some centres unmarked) [Compound 437] | < 1000 nM | < 1000 nM
15 | COc1cccc(C2SC(CC(=O)N3CCC(n4cc(-c5ccccc5)[nH]c4=O)CC3)C(=O)N2CCC(C)C)c1 (centres unmarked) [Compound 61] | 1000 to 5000 nM | > 5000 nM
16 | CC(C)CCN1C(=O)C(CC(=O)N2CCC(n3c(=O)[nH]c4ccccc43)CC2)SC1c1ccccc1-n1ccnc1 (centres unmarked) [Compound 289] | < 1000 nM | < 1000 nM
17 | O=C(CC1SC(c2ccccc2)N(C2CC2)C1=O)N1CCC(N2Cc3ccccc3NC2=O)CC1 (centres unmarked) [Compound 230] | > 5000 nM | 1000 to 5000 nM
18 | CC(C)(C)CCN1C(=O)[C@H](CC(=O)N2CCC(N3CCc4ccccc4NC3=O)CC2)SC1c1cccc(F)c1NCCN1CCCCC1 (stereo partly drawn) [Compound 520, 3-(1-(2-((5S)-2-(2-(2-(Piperidin-1-yl)ethylamino)-3-fluorophenyl)-3-(3,3-dimethylbutyl)-4-oxothiazolidin-5-yl)acetyl)piperidin-4-yl)-4,5-dihydro-1H-benzo[d][1,3]diazepin-2(3H)-one] | < 1000 nM | < 1000 nM
19 | CN(C)c1ccccc1C1SC(CC(=O)N2CCC(N3CCc4ccccc4NC3=O)CC2)C(=O)N1CCC(C)(C)C (centres unmarked) [Compound 263] | < 1000 nM | < 1000 nM

Row | Structure (SMILES) | IC50 [1] | Ki [2]
20 | CC(C)CCN1C(=O)C(CC(=O)N2CCC(N3CCc4ccccc4NC3=O)CC2)SC1c1ccccc1-n1ccnc1 (centres unmarked) [Compound 260] | < 1000 nM | < 1000 nM
21 | Cc1cc(C2SC(CC(=O)N3CCC(n4cc(-c5ccccc5)[nH]c4=O)CC3)C(=O)N2CCC(C)C)cc2cn[nH]c12 (centres unmarked) [Compound 248] | < 1000 nM | > 5000 nM
22 | CC(C)(C)N1CCN(c2c(F)cccc2[C@H]2S[C@@H](CC(=O)N3CCC(N4CCc5ccccc5NC4=O)CC3)C(=O)N2CC2CCOCC2)CC1 [Compound 523] | < 1000 nM | < 1000 nM
23 | CC(C)(C)CCN1C(=O)[C@H](CC(=O)N2CCC(N3CCc4ccccc4NC3=O)CC2)SC1c1cccc(F)c1N1CCN(C2CCC2)CC1 (some centres unmarked) [Compound 542] | < 1000 nM | < 1000 nM
24 | CN1CCN(c2ccccc2C2SC(CC(=O)N3CCC(c4cc5ccccc5[nH]c4=O)CC3)C(=O)N2CCC(C)(C)C)CC1 (centres unmarked) [Compound 303] | < 1000 nM | < 1000 nM
25 | CC(C)CCN1C(=O)C(CC(=O)N2CCC(N3Cc4ccccc4NC3=O)CC2)SC1c1ccc(F)cc1F (centres unmarked) [Compound 212] | < 1000 nM | < 1000 nM
26 | COCCN1C(=O)C(CC(=O)N2CCC(N3Cc4ccccc4NC3=O)CC2)SC1c1ccccc1 (centres unmarked) [Compound 30] | 1000 to 5000 nM | < 1000 nM
27 | CC(C)CC1SC(CC(=O)N2CCC(N3Cc4ccccc4NC3=O)CC2)C(=O)N1CC(F)(F)F (centres unmarked) [Compound 226] | 1000 to 5000 nM | < 1000 nM
28 | C#CCN1C(=O)C(CC(=O)N2CCC(N3Cc4ccccc4NC3=O)CC2)SC1c1ccccc1 (centres unmarked) [Compound 116] | 1000 to 5000 nM | < 1000 nM
29 | CC(C)OCCN1C(=O)[C@H](CC(=O)N2CCC(n3c(=O)[nH]c4ncccc43)CC2)SC1c1cccc(F)c1N1CCN(C(C)(C)C)CC1 (some centres unmarked) [Compound 530] | < 1000 nM | < 1000 nM
30 | CC(C)(C)N1CCN(c2c(F)cccc2[C@@H]2S[C@@H](CC(=O)N3CCC(N4CCc5ccccc5NC4=O)CC3)C(=O)N2CCc2ccccc2)CC1 [Compound 508] | < 1000 nM | < 1000 nM
31 | CN(C)c1ccccc1C1SC(CC(=O)N2CCC(n3c(=O)[nH]c4ccccc43)CC2)C(=O)N1CCC(C)(C)C (centres unmarked) [Compound 299] | < 1000 nM | < 1000 nM
32 | CC(C)(C)CCN1C(=O)C(CC(=O)N2CCC(N3CCc4ccccc4NC3=O)CC2)SC1c1ccccc1N1CCC(O)CC1 (centres unmarked) [Compound 150] | < 1000 nM | < 1000 nM
33 | CN(C)[C@@H]1CCN(c2ccccc2C2SC(CC(=O)N3CCC(N4CCc5ccccc5NC4=O)CC3)C(=O)N2CCC(C)(C)C)C1 (some centres unmarked) [Compound 405] | 1000 to 5000 nM | < 1000 nM
34 | CC(C)(C)CCN1C(=O)[C@H](CC(=O)N2CCC(N3CCc4ccccc4NC3=O)CC2)SC1c1ccccc1N1CCNCC1=O (some centres unmarked) [Compound 511] | < 1000 nM | < 1000 nM
35 | CNC1CCN(c2c(F)cccc2[C@H]2S[C@@H](CC(=O)N3CCC(n4c(=O)[nH]c5ncccc54)CC3)C(=O)N2CCC(C)(C)C)C1 (some centres unmarked) [Compound 458] | < 1000 nM | < 1000 nM
36 | CC(C)N1CCN(c2c(F)cccc2[C@H]2S[C@@](C)(CC(=O)N3CCC(N4CCc5ccccc5NC4=O)CC3)C(=O)N2CCC(C)(C)C)CC1 [Compound 432] | < 1000 nM | < 1000 nM
37 | COc1ccc(C2SC(CC(=O)N3CCC(n4cc(-c5ccccc5)[nH]c4=O)CC3)C(=O)N2CCC(C)C)cc1OC (centres unmarked) [Compound 19] | > 5000 nM | > 5000 nM
